compound: CN(C)C(=N)NC(=N)N [Metformin] + C[C@@H](Oc1cc(-c2cnn(C3CCNCC3)c2)cnc1N)c1c(Cl)ccc(F)c1Cl [Crizotinib] (partner 1 µM); test: relative viability (nuclei count vs DMSO), 5 days (fraction); higher = more cells survive; conditions: first compound 100 µM
In short: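 Nuclei were stained with Hoechst during a one-step fixation (final 0.05% Triton X-100, 1% formaldehyde, 1 ug/ml Hoechst) carried out 5 days after dosing, then counted on 4× images. The cells, lung cancer lines in 1536-well plates, had been dosed by pin tool the day after seeding with one drug alone or a fixed anchor-drug dose plus five library-drug doses (not always all listed) in √10 steps. Relative viability is the nuclei count in treated wells divided by that in vehicle wells, and each value is the median of duplicate plates.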

Row | Cell Line | relative viability
1 | NCI-H1666 | 1.15
2 | NCI-H1734 | 0.654
3 | NCI-H1755 | 0.744
4 | NCI-H1792 | 1.13
5 | NCI-H1915 | 0.918
6 | NCI-H1944 | 1.26
7 | NCI-H1975 | 1.21
8 | NCI-H1993 | 1.22
9 | NCI-H2009 | 1.11
10 | NCI-H2023 | 0.706
11 | NCI-H2085 | 0.947
12 | NCI-H2087 | 0.682
13 | NCI-H2126 | 0.957
14 | NCI-H2347 | 0.85
15 | NCI-H2405 | 0.97
16 | NCI-H3122 | 0.241

same assay, conditions: first compound 316.23 µM

Row | Cell Line | relative viability
17 | LU99A | 0.503
18 | LXF-289 | 0.776
19 | NCI-H23 | 0.548
20 | NCI-H322M | 0.854
21 | NCI-H358 | 0.311
22 | NCI-H520 | 0.752
23 | NCI-H596 | 1.11
24 | NCI-H647 | 0.939
25 | NCI-H650 | 0.709
26 | NCI-H661 | 0.885
27 | NCI-H727 | 0.811
28 | NCI-H838 | 0.864
29 | NCI-H1355 | 0.986
30 | NCI-H1437 | 0.898
31 | NCI-H1563 | 0.793
32 | NCI-H1651 | 0.964

Row | Cell Line | relative viability
33 | NCI-H1666 | 1.09
34 | NCI-H1734 | 0.669
35 | NCI-H1755 | 0.756
36 | NCI-H1792 | 0.971
37 | NCI-H1915 | 0.889
38 | NCI-H1944 | 1.11
39 | NCI-H1975 | 1.06
40 | NCI-H1993 | 1.06
41 | NCI-H2009 | 1.04
42 | NCI-H2085 | 0.721
43 | NCI-H2087 | 0.849
44 | NCI-H2126 | 0.908
45 | NCI-H2228 | 0.385
46 | NCI-H2347 | 0.566
47 | NCI-H2405 | 0.89
48 | NCI-H3122 | 0.255

same assay, conditions: first compound 1000 µM

Row | Cell Line | relative viability
49 | LU99A | 0.481
50 | LXF-289 | 0.794
51 | NCI-H23 | 0.811
52 | NCI-H322M | 0.78
53 | NCI-H358 | 0.507
54 | NCI-H520 | 0.606
55 | NCI-H596 | 1.17
56 | NCI-H647 | 0.942
57 | NCI-H650 | 0.862
58 | NCI-H661 | 0.8
59 | NCI-H727 | 0.993
60 | NCI-H838 | 0.854
61 | NCI-H1355 | 1.11
62 | NCI-H1437 | 0.902
63 | NCI-H1563 | 0.827
64 | NCI-H1651 | 0.97
65 | NCI-H1666 | 1.2

Row | Cell Line | relative viability
66 | NCI-H1734 | 0.74
67 | NCI-H1755 | 0.753
68 | NCI-H1792 | 0.98
69 | NCI-H1915 | 0.96
70 | NCI-H1944 | 1.12
71 | NCI-H1975 | 1.27
72 | NCI-H1993 | 1.31
73 | NCI-H2009 | 0.878
74 | NCI-H2023 | 0.512
75 | NCI-H2085 | 0.879
76 | NCI-H2087 | 0.638
77 | NCI-H2126 | 0.956
78 | NCI-H2228 | 0.581
79 | NCI-H2347 | 0.675
80 | NCI-H2405 | 0.854
81 | NCI-H3122 | 0.224
